{"source": "patent US20150030676A1", "about": "“STABLIZED MODIFIED RELEASE FOLIC ACID DERIVATIVE COMPOSITION, ITS THERAPEUTIC USE AND METHODS OF MANUFACTURE” (APTALIS PHARMATECH, INC., priority 2013, published 2015)", "origin": "cited, not measured here", "details": "in vivo"}
{"substance": "6(S)-5-methyltetrahydrofolate [L-methylfolate]", "values": [{"measurement": "plasma elimination half life", "result": "about 3 hours"}]}
